{"source": "PubChem BioAssay AID1324", "about": "(NMMLSC, 2008)", "note": "Activity calls are given as the source filed them. No rule for the calls is given here.", "data": [{"target": "glutathione S-transferase (GST-GSH binding)", "assay": "GST–glutathione interaction disruption – biochemical, multiplex beads, flow cytometry, HPSMTB buffer, profiling panel (AID 1324);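 also: glutathione beads loaded with GST-green fluorescent protein and no fluorescent Bim peptide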", "details": "multiplex bead flow cytometry, MCF", "values": [{"smiles": "Cc1ccc(O)c(NC2=C(Cl)C(=O)N(Cc3ccccc3)C2=O)c1", "EC50": "inactive"}]}, {"target": "glutathione S-transferase (GST-GSH binding)", "assay": "GST–glutathione interaction disruption – biochemical, multiplex beads, flow cytometry, HPSMTB buffer, profiling panel (AID 1324)", "details": "multiplex bead flow cytometry, MCF, concentration not given here", "values": [{"smiles": "CCOc1cc(/C=N/NC(=O)c2cccs2)cc([N+](=O)[O-])c1O", "percent span inhibition": "inactive"}, {"smiles": "CCOC(=O)c1c(NC(=O)c2ccccc2N(C)S(=O)(=O)c2ccccc2)sc2c1CCCC2", "percent span inhibition": "inactive"}, {"smiles": "C1=CC2c3ccccc3NC(c3ccncc3)C2C1", "note": "(stereo unspecified)", "percent span inhibition": "inactive"}, {"smiles": "COc1cc(CNc2ccc3[nH]c(=O)[nH]c3c2)cc(Br)c1OCC(=O)NC(C)(C)C", "percent span inhibition": "inactive"}, {"smiles": "N/C(=N\\OC(=O)CCC1CCCC1)c1ccncc1", "percent span inhibition": "inactive"}, {"smiles": "CCOc1cc(/C=C2/N=C(C)C(C(=O)OC)=C2O)ccc1O", "percent span inhibition": "inactive"}, {"smiles": "CCNC(=S)Nc1ccc(OCC)cc1", "percent span inhibition": "inactive"}, {"smiles": "CN(Cc1cccs1)C(=O)CCc1c[nH]c2ccccc12", "percent span inhibition": "inactive"}, {"smiles": "CCOC(=O)c1nn(-c2ccccc2)c(C#N)c1N", "percent span inhibition": "inactive"}, {"smiles": "COc1ccc(C2=Nc3cccc4cccc(c34)N2)cc1", "percent span inhibition": "inactive"}, {"smiles": "COc1ccc(C(=S)N2CCCCCC2)cc1", "percent span inhibition": "inactive"}, {"smiles": "c1ccc(-c2nc(N3CCCCC3)nc3ccccc23)cc1", "percent span inhibition": "inactive"}, {"smiles": "O=C1NCCN1C(=O)N(c1ccccc1)c1ccccc1", "percent span inhibition": "inactive"}, {"smiles": "COc1ccc(OC)c(NC(=O)CCCN2C(=S)NC(C)(C)CC2C)c1", "note": "(stereo unspecified)", "percent span inhibition": "inactive"}, {"smiles": "CC(C)Cc1cc(-c2ccco2)c(C#N)c(N)n1", "percent span inhibition": "inactive"}, {"smiles": "O=S1(=O)N=C(N(CCO)/N=C/C=C/c2ccccc2)c2ccccc21", "percent span inhibition": "inactive"}, {"smiles": "COC(=O)c1cc(OC)c(OC)cc1NC(=O)Nc1cccc(C(C)=O)c1", "percent span inhibition": "inactive"}, {"smiles": "COc1ccc(C(=O)Nc2ccc(C(=O)OCC(=O)c3cccc4ccccc34)cc2)cc1", "percent span inhibition": "inactive"}, {"smiles": "CN1N=C(C(=O)N2CCCC(C(=O)c3cccc(C(F)(F)F)c3)C2)CCC1=O", "note": "(stereo unspecified)", "percent span inhibition": "inactive"}, {"smiles": "CCN1/C(=C\\c2ccc3cc(C)ccc3[n+]2CC)Sc2cc(C)c(C)cc21", "percent span inhibition": "inactive"}, {"smiles": "OCCC1CN(Cc2nc3c(s2)CCCC3)CCN1Cc1ccsc1", "note": "(stereo unspecified)", "percent span inhibition": "inactive"}, {"smiles": "C#CCOCCOCCOCCNc1nc(N2CCN(C(=O)[C@H]([C@@H](C)CC)n3cc([C@@H](N)CC(C)C)nn3)CC2)nc(N2CCN(C(=O)[C@H](Cc3cc4ccccc4[nH]3)n3cc([C@@H](N)Cc4ccc(O)cc4)nn3)CC2)n1", "percent span inhibition": "inactive"}, {"smiles": "COC(=O)CCC(=O)Nc1sc(C)c(C)c1C(N)=O", "percent span inhibition": "inactive"}, {"smiles": "O=C(O)CC/C(=C\\c1cc([N+](=O)[O-])ccc1Cl)c1nc2ccccc2s1", "percent span inhibition": "inactive"}, {"smiles": "COc1cc(NC(=S)NCCCO)c(OC)cc1Cl", "percent span inhibition": "inactive"}, {"smiles": "COc1ccc2nc(C)cc(SCC(=O)N/N=C/c3ccc(O)c(O)c3)c2c1", "percent span inhibition": "inactive"}, {"smiles": "Cc1cc(NC(=O)CCCC(=O)NCc2ccccc2)no1", "percent span inhibition": "inactive"}, {"smiles": "Cc1cc(-c2csc(N)n2)c(C)n1CCC(C)C", "percent span inhibition": "inactive"}, {"smiles": "CC1Nc2ccccc2C(=O)N1NS(C)(=O)=O", "note": "(stereo unspecified)", "percent span inhibition": "inactive"}, {"smiles": "Cn1c(N)c(C(=O)COC(=O)c2cc(-c3ccco3)nc3ccccc23)c(=O)n(Cc2ccccc2)c1=O", "percent span inhibition": "inactive"}, {"smiles": "Cn1c(OCc2cccnc2)nc2c1c(=O)n(Cc1ccccc1)c(=O)n2C", "percent span inhibition": "inactive"}, {"smiles": "CC(=O)Nc1ccc(NC2=C(Cl)C(=O)c3ccccc3C2=O)cc1", "percent span inhibition": "inactive"}, {"smiles": "O=C(c1cc(=O)c2ccccc2o1)N1CCN(c2ccccc2F)CC1", "percent span inhibition": "inactive"}, {"smiles": "NC(=O)c1c(N)sc2c1CCCCC2", "percent span inhibition": "inactive"}, {"smiles": "O=C(NC1=C(NC2CCS(=O)(=O)C2)C(=O)c2ccccc2C1=O)c1ccccc1", "note": "(stereo unspecified)", "percent span inhibition": "inactive"}, {"smiles": "CN1CCS/C1=C/C=C1/SC(=S)N(Cc2ccccc2)C1=O", "percent span inhibition": "inactive"}, {"smiles": "CN=C(NC1CCCCC1)c1ccc(Cl)cc1", "percent span inhibition": "inactive"}, {"smiles": "CN=c1scc(C)n1/N=C/c1ccc(O)c(O)c1O", "percent span inhibition": "inactive"}, {"smiles": "O=C(Cn1c2ccccc2c(=O)c2ccccc21)N/N=C/c1ccc(N2CCCC2)c([N+](=O)[O-])c1", "percent span inhibition": "inactive"}, {"smiles": "OCCC1CN(Cc2ccc3ncccc3c2)CCN1Cc1ccccc1", "note": "(stereo unspecified)", "percent span inhibition": "inactive"}, {"smiles": "COc1ccc(C2=Nn3c(nnc3-c3ccccn3)SC2)cc1OC", "percent span inhibition": "inactive"}, {"smiles": "COc1ccccc1NC(=O)CSc1nnc(-c2ccco2)n1Cc1ccco1", "percent span inhibition": "inactive"}, {"smiles": "CCOc1ccc(CNc2ccc(N3CCCC3)cc2)cc1", "percent span inhibition": "inactive"}, {"smiles": "Cc1cc(NC(=O)CSc2nnc(-c3cccnc3)n2Cc2ccccc2)no1", "percent span inhibition": "inactive"}, {"smiles": "Cn1cc(CN2C[C@]3(C)C[C@H]2CC(C)(C)C3)c(-c2ccc3c(c2)OCCO3)n1", "percent span inhibition": "inactive"}, {"smiles": "O=C1C(Cl)=C(N2CCN(c3ccccc3[N+](=O)[O-])CC2)C(=O)c2ccccc21", "percent span inhibition": "inactive"}, {"smiles": "Cc1cc(C)n(CC(=O)N/N=C/c2cccc([N+](=O)[O-])c2)n1", "percent span inhibition": "inactive"}, {"smiles": "Cc1cc(N2CCN(C)CC2)nc2ccc(NC(=S)N3CCN(c4ccc(F)cc4)CC3)cc12", "percent span inhibition": "inactive"}, {"smiles": "O=c1nc2c(O)cccn2c2c1c(=O)[nH]c1ccccc12", "percent span inhibition": "inactive"}, {"smiles": "CNC(CC(=O)c1ccc([N+](=O)[O-])cc1)C(Cl)(Cl)Cl", "note": "(stereo unspecified)", "percent span inhibition": "inactive"}, {"smiles": "Cc1ccc(-c2c3c([nH]c(=S)c2C#N)CCCC3)o1", "percent span inhibition": "inactive"}, {"smiles": "Cc1cc(N/C(=N/S(=O)(=O)c2cc(F)ccc2F)c2ccccc2)n(-c2ccccc2)n1", "percent span inhibition": "inactive"}, {"smiles": "CCOc1cccc(CNc2ccc(O)cc2)c1OCc1ccc(Cl)cc1", "percent span inhibition": "inactive"}, {"smiles": "Cc1ccccc1-n1c(SCc2cccc(F)c2)nc2[nH]ncc2c1=O", "percent span inhibition": "inactive"}, {"smiles": "Cn1c(CNc2nc(-c3ccccc3)cs2)nnc1SCC(=O)N1CCc2ccccc21", "percent span inhibition": "inactive"}, {"smiles": "Cc1ccc2c(c1)C1CN(C)CCC1N2C(=O)Nc1cccc(Cl)c1", "note": "(stereo unspecified)", "percent span inhibition": "inactive"}, {"smiles": "CCOc1cc(S(=O)(=O)Nc2ccccn2)ccc1F", "percent span inhibition": "inactive"}, {"smiles": "c1coc(C2=Nc3cccc4cccc(c34)N2)c1", "percent span inhibition": "inactive"}, {"smiles": "Cn1c(=O)[nH]c(=O)c2c1nc(N1CCOCC1)n2CCSc1nc2ccccc2[nH]1", "percent span inhibition": "inactive"}, {"smiles": "COc1ccccc1-n1c(-c2cc(-c3ccc(F)cc3)n[nH]2)n[nH]c1=S", "percent span inhibition": "inactive"}, {"smiles": "COc1ccccc1Oc1ccc2c(c1)C(=O)N(c1cccc3ncccc13)C2=O", "percent span inhibition": "inactive"}, {"smiles": "Cc1noc(C)c1CN1C(=O)NC(Cc2ccccc2)(Cc2ccccc2)C1=O", "percent span inhibition": "inactive"}, {"smiles": "CS(=O)(=O)NN1C(=O)c2ccccc2NC1c1cccs1", "note": "(stereo unspecified)", "percent span inhibition": "inactive"}, {"smiles": "CCC(=O)N(CC)C1=C(O)c2ccccc2C(=O)C1=O", "percent span inhibition": "inactive"}, {"smiles": "CC1=C2C(CCS2(=O)=O)CC2(C1)C(=O)OC(C)(C)OC2=O", "note": "(stereo unspecified)", "percent span inhibition": "inactive"}, {"smiles": "S=C1NC2=C(CCC/C2=C\\c2ccccc2)C(c2ccccc2)N1", "note": "(stereo unspecified)", "percent span inhibition": "inactive"}, {"smiles": "Nc1c(C(=O)NC2CC2)sc2nc3c(c(-c4ccco4)c12)CC/C3=C/c1ccco1", "percent span inhibition": "inactive"}, {"smiles": "COc1ccc(-c2noc(COc3ccc4c(c3)OCO4)n2)cc1OC", "percent span inhibition": "inactive"}, {"smiles": "S=C(Nc1ccccc1)N1CCn2cccc2C1c1cccnc1", "note": "(stereo unspecified)", "percent span inhibition": "inactive"}, {"smiles": "Cc1ccc(C(=O)C(C(=O)/C=C/c2ccccc2)=C2SCCCS2)cc1", "percent span inhibition": "inactive"}]}]}
